# Reference: US8969312B2, “Low side effect pharmaceutical composition containing antituberculosis drugs” (priority 2011, dated 2015)
# Experiments:
# CYP2E1 [1] = target: T1, CYP2E1 (Homo sapiens, UniProt P05181); assay: in vitro; settings: human liver microsomes, pH 7.4, probe chlorzoxazone (6-hydroxylation)
# Description: (§1) Microsomes prepared from human liver were used to extract cytochrome P450 2E1 (CYP2E1) and CYP2E1 inhibitors were screened from 39 Chinese medicine guiding drugs and 10 excipients. Chlorzoxazone hydroxylation is a reaction catalyzed primarily by CYP2E1 in liver. The extracted human liver microsomal cytochrome P450 2E1 (CYP2E1) was mixed with its substrate, Chlorzoxazone, and test sample was then added Inhibition of CYP2E1 activity was calculated by measuring CYP2E1 standard metabolite, 6-OH-CZX (6-Hydroxy-Chlorzoxazone), and compared with control 6-OH-CZX.
# (§2) After incubation, 16 mM Chlorzoxazone and test samples were added to experimental groups; methanol:sterilized water at 1:1 ratio was added to control groups and DDTC was added to positive control groups,
# (§3) Finally, cofactor 1 mM NADP^+, 10 mM G6P and 2 IU G6PD were added and reaction mixtures were transferred to pre-incubation 37° C. water bath for 1 mM and activity was measured after 30 min of reaction
# (§4) At the end of reaction, 500 μl acetonitrile was added to stop the reaction followed by 5 g/mL 4-hydroxy-tobutamide after 1 mM incubation. The mixture was then centrifuged and 20 L of supernatant was diluted ten times with methanol/sterilized water and 5 L was used for LC/MS/MS analysis. […] The inhibition of CYP2E1 was then calculated by the following equation:
# CYP2E1 [2] = target: T1, CYP2E1; assay: Human liver microsomal CYP2E1, chlorzoxazone 6-hydroxylation; settings: human; for inhibition at 30 min, 0.167 % (w/v): microsomes, pH 7.4;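 on all read-outs here: chlorzoxazone added as substrate, 6-hydroxychlorzoxazone formation quantified by LC/MS/MS after 30 min at 37 °C with NADP+ regenerating system, compared against solvent control without test sample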
# Description: as §1, §2, §3, §4
# 129/sv mice [3] = assay: Mouse study of INH/RIF with oral Kaempferol, Mannitol, Saccharin, Sucralose, Dicalcium phosphate or Crospovidone; format: in vivo; settings: 3 weeks, in words
# Text: Animals were randomized into one of thirteen groups, each involving three treatments. […].
# All mice were subjected to GSP test.
# 129/sv mice [4] = assay: Mouse study of INH/RIF(/PZA) with i.p. Kaempferol or Quercetin
# Text: Animals were randomized into one of seven groups, each involving five treatments.
# All mice were subjected to GSP tests.
# [5] = target: cytochrome P450 2E1 (CYP2E1) (Homo sapiens, UniProt P05181); assay: CYP2E1 High Throughput Inhibitor Screening Kit, cDNA synthesized microsomal CYP2E1 (MFC to HFC); settings: Table 3; minimum tested concentration (mg/L) × volume of human liver and intestine (3L)
# cytochrome P450 2E1 (CYP2E1), sequence (P05181 whole entry): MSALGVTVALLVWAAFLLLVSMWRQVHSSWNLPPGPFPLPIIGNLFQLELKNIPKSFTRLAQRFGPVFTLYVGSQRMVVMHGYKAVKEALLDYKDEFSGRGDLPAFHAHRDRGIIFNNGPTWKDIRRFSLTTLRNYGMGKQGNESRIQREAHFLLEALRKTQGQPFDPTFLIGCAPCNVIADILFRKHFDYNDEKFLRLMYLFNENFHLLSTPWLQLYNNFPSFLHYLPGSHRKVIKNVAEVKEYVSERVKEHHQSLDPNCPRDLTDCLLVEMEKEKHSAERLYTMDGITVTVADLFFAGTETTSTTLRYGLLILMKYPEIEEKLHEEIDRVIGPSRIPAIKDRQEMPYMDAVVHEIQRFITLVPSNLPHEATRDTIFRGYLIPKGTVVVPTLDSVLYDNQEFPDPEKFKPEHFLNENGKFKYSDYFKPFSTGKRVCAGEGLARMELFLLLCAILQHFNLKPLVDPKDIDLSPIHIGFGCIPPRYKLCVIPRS
# Text: CYP2E1 High Throughput Inhibitor Screening Kit (BD Bioscience, USA) was used to screen the cytochrome P450 (CYP2E1) inhibitors from 22 Chinese medicine guiding drugs and 10 excipients and microsomal cytochrome P450 (CYP2E1) was synthesized from cDNA (BD Bioscience, USA). The principle of the screening kit is to measure the percentage of CYP2E inhibition, after adding the test sample to substrate MFC (7-Methoxy-4-trifluoromethyl coumarin) and cytochrome P450 (CYP2E1), by measuring the synthesis of standard CYP2E1 metabolite (HFC, 7-Hydroxy-4-trifluoromethyl coumarin) and use control HFC as baseline.
# a. 149 μl NADPH-Cofactor Mix and 1 μl 20 mM DDTC were added to the #1 well in a 96-well plate and mixed thoroughly,
# b. Add 100 μl Cofactor/acetonitrile mix to #2 to #12 wells, and well #1 to #8 are positive control. Well #9 and 10 are control and well #11 and #12 are blank,
# c. […] Preparation of Experimental Groups: a. […] Transfer 50 μl from well #1 and #2 and added to well #3 and mixed thoroughly (triplicate for each sample), 3. Initiation and Termination of the Reaction: a. The 96-well plate was incubated at 37° C. for […], b. 100 μl of Enzyme/Substrate Mix was added to every well and mixed thoroughly except the blank wells, c. The 96-well plate was incubated at 37° C. for 40 min, d. 75 μl Stop Solution was added to every well and mixed thoroughly, e. Immediately add 100 μl Enzyme/Substrate Mix to blank wells and mixed thoroughly, f. Measure with a Fluoroskan Ascent FL (Thermo Electron Corporation, Finland) with excitation at 405 nm and emission at 538 nm, 4. The fluorescence was transverse into CYP 2E1 metabolite standard (HFC) concentration (pmol) and the percentage (%) of CYP 2E1 inhibition was calculated using control as baseline by following equation: […]
# [6] = target: T2, human liver microsomal cytochrome P450 2E1 (CYP2E1) (Homo sapiens, UniProt P05181); assay: Human liver microsomal CYP2E1, chlorzoxazone 6-hydroxylation;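 further: chlorzoxazone added as substrate, 6-hydroxychlorzoxazone formation quantified by LC/MS/MS after 30 min at 37 °C with NADP+ regenerating system, compared against solvent control without test sample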
# T2 sequence (P05181 whole entry): as above
# Description: as §1, §2, §3, §4
# [7] = target: T2, human liver microsomal cytochrome P450 2E1 (CYP2E1)
# Description: as §1, §2, §3, §4
# 129/sv mice [8] = assay: Mouse study of INH/RIF/PZA with oral Mannitol (GSP); format: in vivo; settings: in words
# Description: Mice were anesthetized with ether at the dose of 50 mg/kg and galactose was retro-orbitally injected and blood samples were collected 60 min after injection through tail vein.
# Animals were randomized into one of three groups, each involving four treatments. […] The second treatment involved injections of 50 mg/kg INH or INH vehicle (VEH1, normal saline). […] The third treatment involved injections of RIF (100 mg/kg) or RIF vehicle (VEH2, saline). […] The fourth treatment involved injections of PZA (250 mg/kg) or PZA vehicle (VEH3, saline).
# amidase = assay: Mouse liver microsomal amidase, isoniazid to isonicotinic acid; format: biochemical
# [9] = human liver microsomes, pH 7.4, probe Chlorzoxazone
# [10] = daily i.p. 3 weeks, INH/RIF 50/100 mg/kg, Kaempferol 3.78 mg/kg
# T1 sequence (P05181 whole entry): as above
molecule,measurement,setting,value
OCc1ccccc1 [Benzyl alcohol],"inhibition at 30 min, […]",CYP2E1 [1],7.7 ± 2.6%
same,"inhibition at 30 min, 0.08 % (w/v)",CYP2E1 [2]; [9],6.7 ± 1%
same,"inhibition at 30 min, 0.167 % (w/v)",CYP2E1 [2],-10.3 ± 6.3%
O=c1c(O)c(-c2ccc(O)cc2)oc2cc(O)cc(O)c12 [Kaempferol],GSP values over treatment time,129/sv mice [3],remained constant
same,liver function tests,"129/sv mice [4]; Kaempferol 1.89 mg/kg with INH/RIF, in words",no obvious reduction
same,GOT,129/sv mice [4]; [10],89±19 U/L
same,GPT,129/sv mice [4]; [10],48±21 U/L
same,Minimum Effective Dose,[5],16 mg
same,Minimum Effective Dose,"[6]; Table 6, minimum tested concentration (mg/L) × volume of human liver and intestine (3 L)",16 mg
Sodium starch glycolate,inhibition,[7],34.7 ± 1.3%
OC[C@@H](O)[C@@H](O)[C@H](O)[C@H](O)CO [Mannitol],GSP values over treatment time,129/sv mice [3],remained constant
same,GSP values over treatment time,129/sv mice [8],reamined constant
same,Minimum Effective Dose,[6]; Table 7,10 mg
same,"inhibition at 30 min, 16.5 µM",CYP2E1 [2]; [9],44.8 ± 1.8%
same,"inhibition at 30 min, 33 µM",CYP2E1 [2]; [9],51.2 ± 2.1%
same,"inhibition at 30 min, 66 µM",CYP2E1 [2]; [9],54.5 ± 4.2%
same,Amidase inhibition,amidase; 0.0005%,58.3 ± 4.3%
same,Amidase inhibition,amidase; 0.005%,52.8 ± 7.6%
same,Amidase inhibition,amidase; 0.05%,1.9 ± 6.0%
CCCCCCCCCCCCCCCCCC(=O)OCC(O)CO (centres unmarked) [Glycerrin monostearate],Inhibition of CYP 2E1,[6]; 0.08% (w/v),7.4 ± 2.9%
same,Inhibition of CYP 2E1,[6]; 0.167% (w/v),6.9 ± 3.8%
same,inhibition,[7],5.8 ± 1.7%
Tween 80,inhibition,[7],23.1 ± 3%
OC[C@@H](O)[C@@H](O)[C@H](O)[C@@H](O)CO [Sorbitol],"inhibition at 30 min, […]",CYP2E1 [1],4.4 ± 1.7%
same,"inhibition at 30 min, 0.08 % (w/v)",CYP2E1 [2]; [9],5.6 ± 0.5%
same,"inhibition at 30 min, 0.167 % (w/v)",CYP2E1 [2],16.1 ± 0.7%
